Assays:
wild-type poliovirus = assay type: cell-based; conditions: HeLa cells infected with wild-type poliovirus at MOI 0.1, treated one day, CPE score; for WT-PV CPE (1 μM)*: 1 μM compound; for WT-PV CPE (10 μM)*: 10 μM compound; for WT-PV CPE (100 μM)*: 100 μM compound
HCV replicon = assay type: cell-based

CC(C)NS(=O)(=O)Nc1ccc(-c2c(C#N)c3ccc(Oc4ncccn4)cc3n2C2CCC2)cc1 [Compound 2263] gave a melting point of 223 to 224 °C.

With CC(C)OC(=O)Nc1ccc(-c2c(C#N)c3ccc(Oc4ncccn4)cc3n2C2CCC2)cc1Cl [Compound 2339, {2-chloro-4-[3-cyano-1-cyclobutyl-6-(pyrimidin-2-yloxy)-1H-indol-2-yl]-phenyl}-carbamic acid isopropyl ester] the melting point was 165 to 165.5 °C.

For COc1ccc2c(C#N)c(C)n(-c3ccc4c(c3)OCO4)c2c1 [Compound 24], the “WT-PV CPE (1 μM)*” value (wild-type poliovirus) was 2, the “WT-PV CPE (10 μM)*” value (wild-type poliovirus) was 2 and the “WT-PV CPE (100 μM)*” value (wild-type poliovirus) was 3.

In the case of CCn1c(-c2ccc(OC)cc2)c(C#N)c2ccc(OC)cc21 [Compound 19], the “WT-PV CPE (1 μM)*” value (wild-type poliovirus) is reported as 1, the “WT-PV CPE (10 μM)*” value (wild-type poliovirus) is reported as 2 and the “WT-PV CPE (100 μM)*” value (wild-type poliovirus) is reported as 3.

In the case of COc1ccc(-n2cc(C#N)c3ccc(OC)cc32)cc1 [Compound 4], the “WT-PV CPE (1 μM)*” value (wild-type poliovirus) is reported as 1, the “WT-PV CPE (10 μM)*” value (wild-type poliovirus) is reported as 2 and the “WT-PV CPE (100 μM)*” value (wild-type poliovirus) is reported as 3.

In the case of CCn1cc(C#N)c2ccc(OC(C)C)cc21 [Compound 10], the “WT-PV CPE (1 μM)*” value (wild-type poliovirus) is reported as 2, the “WT-PV CPE (10 μM)*” value (wild-type poliovirus) is reported as 2 and the “WT-PV CPE (100 μM)*” value (wild-type poliovirus) is reported as 3.

Compound CCOC(=O)Nc1ccc(-c2c(C#N)c3cc(OC)ccc3n2C2CCC2)cc1 [Compound 1176] has an IC50 (HCV replicon) of 0.5 to 2 µM.

Work on CCOc1ccc2c(C#N)c(-c3ccc(NC(=O)OC(C)C(C)C)cc3)n(C3CCC3)c2c1 (stereo not shown) [Compound 1290] yielded an IC50 (HCV replicon) of less than 0.5 µM.

In the case of CCS(=O)(=O)Nc1ccc(-c2c(C#N)c3ccc(OC)cc3n2COC)cc1 [Compound 988], the IC50 (HCV replicon) is reported as 0.5 to 2 µM.

Compound CCOc1ccc2c(C#N)c(-c3ccc(NC(=O)OCc4ccccn4)cc3)n(C3CCC3)c2c1 [Compound 1264] has an IC50 (HCV replicon) of less than 0.5 µM.

CCCOc1ccc2c(C#N)c(-c3ccc(NC(=O)OCC(C)(C)C)cc3)n(C(C)C)c2c1 [Compound 1207] showed an IC50 (HCV replicon) of less than 0.5 µM.

In the case of N#Cc1c(-c2ccc(NC(=O)NC3CCC3)cc2)n(C2CCC2)c2cc(OCC3CCCO3)ccc12 (stereo not shown) [Compound 1288], the IC50 (HCV replicon) is reported as less than 0.5 µM.

Work on CCCCOC(=O)Nc1ccc(-c2c(C#N)c3ccc(OC)cc3n2C2CCC2)cc1 [Compound 1077] yielded an IC50 (HCV replicon) of less than 0.5 µM.

With CCCNC(=O)Nc1ccc(-c2c(C#N)c3cc(OC)ccc3n2CCC)cc1 [Compound 1000] the IC50 (HCV replicon) was 0.5 to 2 µM.

CCOc1ccc2c(C#N)c(-c3cccc(NC(=O)OCC(C)C)c3)n(C3CCC3)c2c1 [Compound 1037] showed an IC50 (HCV replicon) of 0.5 to 2 µM.

CCOc1ccc2c(C#N)c(-c3ccc(NC(=O)NC4CCCC4)cc3)n(C3CCCC3)c2c1 [Compound 1214] gave an IC50 (HCV replicon) of less than 0.5 µM.

COc1ccc2c(C#N)c(-c3ccc(NC(=O)NC4CCCC4)cc3)n(C3CCC3)c2c1 [Compound 1106] showed an IC50 (HCV replicon) of less than 0.5 µM.

CCCCNC(=O)Nc1ccc(-c2c(C#N)c3cc(OC)ccc3n2CCC)cc1 [Compound 1008] showed an IC50 (HCV replicon) of 0.5 to 2 µM.

With CCCOc1ccc2c(C#N)c(-c3ccc(NC(=O)NC(C)CC)cc3)n(C(C)C)c2c1 (stereo not shown) [Compound 1324] the IC50 (HCV replicon) was less than 0.5 µM.

For CCOc1ccc2c(C#N)c(-c3ccc(NC(=O)OCC4CCCO4)cc3)n(C3CCC3)c2c1 (stereo not shown) [Compound 1240], the IC50 (HCV replicon) was less than 0.5 µM.

Compound CCC(=O)Nc1ccc(-c2c(C#N)c3ccc(OC(F)(F)F)cc3n2CC)cc1 [Compound 914] has an IC50 (HCV replicon) of 0.5 to 2 µM.

CCCCNC(=O)Nc1ccc(-c2c(C#N)c3ccc(OCC)cc3n2CCC)cc1 [Compound 1097] showed an IC50 (HCV replicon) of less than 0.5 µM.

Work on CC(C)(C)OC(=O)Nc1ccc(-c2c(C#N)c3ccc(OCCN4CCCC4)cc3n2C2CCC2)cc1 [Compound 1121] yielded an IC50 (HCV replicon) of less than 0.5 µM.

With N#Cc1c(-c2ccc(NC(=O)OC3CCC3)cc2)n(C2CCC2)c2cc(OCC3CCCO3)ccc12 (stereo not shown) [Compound 1282] the IC50 (HCV replicon) was less than 0.5 µM.

For CCC(C)NC(=O)Nc1ccc(-c2c(C#N)c3ccc(OC(F)F)cc3n2CC2CC2)cc1 (stereo not shown) [Compound 1266], the IC50 (HCV replicon) was 0.5 to 2 µM.

With CCn1c(-c2ccc(NC(=O)OCCF)cc2)c(C#N)c2ccc(OCCCCl)cc21 [Compound 1033] the IC50 (HCV replicon) was less than 0.5 µM.

COCn1c(-c2ccc(N3CCCS3(=O)=O)cc2)c(C#N)c2ccc(OC)cc21 [Compound 990] gave an IC50 (HCV replicon) of 0.5 to 2 µM.

CCCCNC(=O)Nc1ccc(-c2c(C#N)c3cc(OC)ccc3n2CC)cc1 [Compound 1012] gave an IC50 (HCV replicon) of 0.5 to 2 µM.

For CCOc1ccc2c(C#N)c(-c3ccc(NC(=O)OC4CCCC4)nc3)n(C3CCC3)c2c1 [Compound 1145], the IC50 (HCV replicon) was 0.5 to 2 µM.
